Laboratory results published in patent publication EP1641451B1, “METHOD FOR PHOTODYNAMIC INACTIVATION OF PATHOGENS USING ALA” (MACO PHARMA, priority 2003, dated 2005).

Experiments:
Assay type in all cases: cell-based
[1] = test system: Escherichia coli; experiment: Bacterio-attenuation test in contaminated CPA, photodynamic treatment at 365 nm
Description: (§1) Les bactéries sont injectées dans les échantillons à une concentration finale de 1 bactérie pour 50 000 plaquettes. Les bactéries sont mises en culture dans un bouillon Thyoglycolate-Resazurine (ref: 42074, Biomérieux Marcy l'Etoile, France) (0,5 mL de suspension bactérienne en bouillon ou une colonie sur gélose dans 9 mL de bouillon). Elles sont incubées 24 h à 37°C pour qu'elles soient en phase de croissance lors de leur utilisation. Avant leur utilisation, le bouillon de culture est centrifugé à 2500 g pendant 10 min. à 21°C, le culot est repris dans du NaCl 0,9 % et celui-ci est lavé 3 fois à 2500 g pendant 10 min. à 21 °C.
(§2) Le titre bactérien de la suspension lavée et diluée est évalué par une lecture de densité optique à 630 nm. Une dilution de la suspension bactérienne est ensuite réalisée pour obtenir une concentration finale de 1 bactérie pour 50 000 plaquettes.
(§3) Pour réaliser les tests de bactério-atténuation, les CPA dilués sont aliquotés dans la solution SSP (MacoPharma, Tourcoing, France) pour obtenir une concentration finale en protéines de 10 g/L dans des poches en PVC. Puis 1 mL de suspension bactérienne est injecté. Le volume final contenu dans les poches est de 8 mL. Le tout est homogénéisé pour un meilleur contact entre les plaquettes et les bactéries.
(§4) L'illumination se fait à l'aide d'une lampe UVA comportant deux tubes (réf. VL-215BL, Vilber Lourmat, France) génératrice de rayons UV 365 nm et de lumière visible d'une intensité de 108 µW/cm^2 à une distance de 1 m de l'échantillon. La lampe est disposée à une distance de 13 cm des poches à traitées. L'illumination se fait à 4°C. La lampe délivre une dose de 23 J/cm^2 en 1 h.
(§5) Après illumination, une numération bactérienne est réalisée pour mesurer la diminution du tire bactérien dans les poches traitées. Pour cela, 1 mL de la dilution la plus appropriée est étalée sur des géloses nutritives Trypcase-soja (ref : 43011, boîtes de 90 mm de diamètre, Biomérieux, Marcy l'Etoile, France). Les géloses sont ensuite incubées 24 h à 37 °C pour pouvoir effectuer un comptage. Les résultats sont exprimés en ufc/mL.
Des tests de bactério-atténuation ont été effectués sur E. coli. Les tests sont réalisés sur des CPA ajustés à 10 g/L de protéines. Le nombre de plaquettes par poche de 8 ml est de 4,7 10^9.
Les poches sont incubées 1 h à 37°C avant d'être irradiées à 365 nm (Fig. 6).
Sans incubation, les résultats sont les suivants (Fig. 7) : […]

[2] = test system: plaquettes; experiment: Platelet functionality: visual inspection of swirling (tournoiement) of the CPA; conditions: ALA 4 mM; CPA 10 g/L proteins; after 1 h30 illumination at 365 nm
Source text: (§6) Dans cet exemple, deux tests ont été effectués afin d'évaluer la fonctionnalité des plaquettes en présence de différentes concentrations d'ALA après illumination à l'aide des lampes UVA (365 nm).
Le premier test est la visualisation du tournoiement ou « swirling », c'est-à-dire l'inspection visuelle du CPA à travers une source lumineuse (phénomène lié à la présence de formes discoïdes dans la suspension plaquettaire).
(§7) Ces deux tests ont été réalisés sur un CPA ajusté à 10 g/L de protéines en présence de concentration croissante d'ALA après 1 h30 d'illumination à 365 nm.
(§8) Le même test a été réalisé sans illumination (1 h30 d'agitation douce à l'obscurité)
(§9) Un test d'agrégation et une inspection visuelle du tournoiement ont été réalisées sur un CPA ajusté à 10 g/L de protéines en présence de PpX sel disodique dans du NaOH 1 N 0,1 % (après 30 minutes d'illumination à 365 nm). Le nombre de plaquettes par poche de 8 ml est de 7,6.10^9.

[3] = test system: Klebsiella pneumoniae; experiment: Bacterio-attenuation test in contaminated CPA, photodynamic treatment at 365 nm
Description: as §1, §2, §3, §4, §5
Des tests de bactério-atténuation ont été effectués sur Klebsiella pneumoniae. Les tests sont réalisés sur des CPA ajustés à 10 g/L de protéines. Le nombre de plaquettes par poche de 8 mL est de 10,5.10^9.
Les poches sont incubées 1h à température ambiante puis illuminées par irradiation à 365 nm (Fig. 4 et 5).

[4] = test system: plaquettes; experiment: Platelet functionality: collagen aggregation test (thrombo-aggregometer, turbidimetry); conditions: for % d'aggrégation: CPA 10 g/L proteins
Description: as §6
Le second test est un test d'agrégation au collagène. Ce test est réalisé à l'aide d'un thrombo-agrégomètre (SEFAM, Regulest, Fleurange, France). L'activation plaquettaire par un agoniste (collagène) est estimée in vitro par turbidimétrie, en enregistrant en continu à 37°C et sous agitation, la transmission d'un faisceau de lumière à travers la suspension plaquettaire. Le regroupement des plaquettes en amas de plus en plus volumineux s'accompagne d'un éclaircissement progressif du milieu. Les résultats sont rendus en pourcentage d'agrégation en fonction du temps, le 100% d'agrégation correspondant au plasma pauvre en plaquettes et le 0% d'agrégation correspondant à l'échantillon avant l'ajout de l'agoniste. L'enregistrement de la transmission lumineuse est déclenché au moment de l'ajout d'un faible volume de l'agoniste à l'échantillon. Ainsi, nous pouvons visualiser le temps de latence, le changement de forme des plaquettes puis l'agrégation qui peut être stable ou réversible.
as §7, §8, §9

NCC(=O)CCC(=O)O [ALA, acide 5-aminolévulinique]
titre bactérien E. Coli ([1]; ALA 5 mM, Incub 1h at 37°C): 231 10^-2 ufc/ml
titre bactérien E. Coli ([1]; ALA 5 mM, Incub 1h at 37°C then Irr 1h30 at 365 nm): 1 10^-2 ufc/ml
titre bactérien E. Coli ([1]; ALA 5 mM, Incub 1h at 37°C then Irr. 1h at 365 nm): 17 10^-2 ufc/ml
titre bactérien E. Coli ([1]; ALA 5 mM, T0, CPA 10 g/L proteins, series with incubation): 172 10^-2 ufc/ml
titre bactérien E. Coli ([1]; ALA 5 mM, T0, without incubation): 183 10^-2 ufc/ml
titre bactérien E. Coli ([1]; ALA 5 mM, without incubation, Irr 1 h30 at 365 nm): 2 10^-2 ufc/ml
titre bactérien E. Coli ([1]; ALA 5 mM, without incubation, Irr. 1h at 365 nm): 48 10^-2 ufc/ml
inactivation de E.coli ([1]; ALA (5 mM), even without incubation, irradiation at 365 nm): efficace
inactivation de E.coli ([1]; CPA irradiated 1 h and 1 h30 at 365 nm with ALA (5 mM), after 1 h incubation at 37°C): obtenue
Swirling [2]: Faible+
titre bactérien Klebsiella ([3]; ALA 1 mM, Incub. 1 h at room temperature): 187 10^-2 ufc/ml
titre bactérien Klebsiella ([3]; ALA 1 mM, Incub. 1 h then Irr. 1h30 at 365 nm): 5 10^-2 ufc/ml
titre bactérien Klebsiella ([3]; ALA 1 mM, Incub. 1 h then Irr. 1 h at 365 nm): 14 10^-2 ufc/ml
titre bactérien Klebsiella ([3]; ALA 1 mM, T0, CPA 10 g/L proteins): 201 10^-2 ufc/ml
titre bactérien Klebsiella ([3]; ALA 2 mM, Incub 1 h at room temperature): 163 10^-2 ufc/ml
titre bactérien Klebsiella ([3]; ALA 2 mM, Incub 1 h then Irr 1 h30 at 365 nm): 1 10^-2 ufc/ml
titre bactérien Klebsiella ([3]; ALA 2 mM, Incub 1 h then Irr. 1 h at 365 nm): 9 10^-2 ufc/ml
titre bactérien Klebsiella ([3]; ALA 2 mM, T0, CPA 10 g/L proteins): 159 10^-2 ufc/ml
titre bactérien Klebsiella ([3]; ALA 3 mM, Incub 1 h at room temperature): 168 10^-2 ufc/ml
titre bactérien Klebsiella ([3]; ALA 3 mM, Incub 1 h then Irr 1 h30 at 365 nm): 1 10^-2 ufc/ml
titre bactérien Klebsiella ([3]; ALA 3 mM, Incub 1 h then Irr. 1 h at 365 nm): 8 10^-2 ufc/ml
titre bactérien Klebsiella ([3]; ALA 3 mM, T0, CPA 10 g/L proteins): 179 10^-2 ufc/ml
titre bactérien Klebsiella ([3]; ALA 4 mM, Incub 1h at room temperature): 192 10^-2 ufc/ml
titre bactérien Klebsiella ([3]; ALA 4 mM, Incub 1h then Irr 1h30 at 365 nm): 1 10^-2 ufc/ml
titre bactérien Klebsiella ([3]; ALA 4 mM, Incub 1h then Irr. 1h at 365 nm): 6 10^-2 ufc/ml
titre bactérien Klebsiella ([3]; ALA 4 mM, T0, CPA 10 g/L proteins): 183 10^-2 ufc/ml
titre bactérien Klebsiella ([3]; ALA 5 mM, Incub. 1h at room temperature): 175 10^-2 ufc/ml
titre bactérien Klebsiella ([3]; ALA 5 mM, Incub. 1h then 'Irr 1h 1h30' at 365 nm): 0 10^-2 ufc/ml
titre bactérien Klebsiella ([3]; ALA 5 mM, Incub. 1h then 'Irr.' at 365 nm): 4 10^-2 ufc/ml
titre bactérien Klebsiella ([3]; ALA 5 mM, T0, CPA 10 g/L proteins): 178 10^-2 ufc/ml
inactivation de K. pneumoniae ([3]; CPA irradiated 1h and 1 h30 at 365 nm with ALA 1-5 mM, no significant difference between concentrations): obtenue
% d'aggrégation ([4]; ALA 1 mM, after 1 h30 illumination at 365 nm, collagen): 80%
% d'aggrégation ([4]; ALA 1 mM, no illumination, 1 h30 in the dark, collagen): 84%
% d'aggrégation ([4]; ALA 2 mM, after 1 h30 illumination at 365 nm, collagen): 69%
% d'aggrégation ([4]; ALA 2 mM, no illumination, 1 h30 in the dark, collagen): 84%
% d'aggrégation ([4]; ALA 3 mM, after 1 h30 illumination at 365 nm, collagen): 76%
% d'aggrégation ([4]; ALA 3 mM, no illumination, 1 h30 in the dark, collagen): 82%
% d'aggrégation ([4]; ALA 4 mM, after 1 h30 illumination at 365 nm, collagen): 53%
% d'aggrégation ([4]; ALA 4 mM, no illumination, 1 h30 in the dark, collagen): 76%
% d'aggrégation ([4]; ALA 5 mM, after 1 h30 illumination at 365 nm, collagen): 26%
% d'aggrégation ([4]; ALA 5 mM, no illumination, 1 h30 in the dark, collagen): 78%
fonctionnalité des plaquettes ([4]; illumination of CPA with too high a concentration of ALA): semble faire perdre de leur fonctionnalité aux plaquettes

protoporphyrine IX [PpIX]
inactivation de E.coli ([1]; PpIX 10 µM, irradiation at 365 nm): inefficace
titre bactérien E. Coli ([1]; PpIX 10 µm, T0, without incubation): 166 10^-2 ufc/ml
titre bactérien E. Coli ([1]; PpIX 10 µm, without incubation, Irr 1 h30 at 365 nm): 108 10^-2 ufc/ml
titre bactérien E. Coli ([1]; PpIX 10 µm, without incubation, Irr. 1h at 365 nm): 171 10^-2 ufc/ml
inactivation de K. pneumoniae ([3]; PpIX 10µM, same conditions (incubation 1h, irradiation 1h and 1h30 at 365 nm)): ne permet pas l'inactivation
titre bactérien Klebsiella ([3]; PpIX 10 µM, Incub 1h at room temperature): 162 10^-2 ufc/ml
titre bactérien Klebsiella ([3]; PpIX 10 µM, Incub 1h then Irr 1h30 at 365 nm): 203 10^-2 ufc/ml
titre bactérien Klebsiella ([3]; PpIX 10 µM, Incub 1h then Irr. 1h at 365 nm): 178 10^-2 ufc/ml
titre bactérien Klebsiella ([3]; PpIX 10 µM, T0, CPA 10 g/L proteins): 181 10^-2 ufc/ml
% d'aggrégation ([4]; PpIX 1 µM, after 30 minutes illumination at 365 nm): 53%
% d'aggrégation ([4]; PpIX 5µM, after 30 minutes illumination at 365 nm): 16%
% d'aggrégation ([4]; PpIX 10 µM, after 30 minutes illumination at 365 nm): 16%
% d'aggrégation ([4]; PpIX 20 µM, after 30 minutes illumination at 365 nm): 15%
